Measurements from US6521650B1, “Amines as pharmaceutical agents” (Pfizer, Inc., priority 1997, dated 2003).

Experiments:
DBA2 = DBA2 % Protection; format: in vivo

| melting point | SMILES | DBA2 % Protection 1 Hr (DBA2) | DBA2 % Protection 2 Hr (DBA2) |
| --- | --- | --- | --- |
| 183 to 185 °C | CC(C)CC(CN)Cc1noc(=S)[nH]1.Cl (centres unmarked) |  |  |
|  | CC(C)CC(CN)Cc1noc(=S)[nH]1 (centres unmarked) | 0% | 0% |
|  | CC(C)CC(CN)CP(=O)(O)O (centres unmarked) [PO3H2, (2-Aminomethyl-4-methyl-pentyl)-phosphonic acid] | 0% | 0% |
